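Interpolation was linear, between the two tested concentrations surrounding the appropriate level; five concentrations were tested over 48 hours in 96-well plates. TGI denotes the concentration required for complete inhibition of growth.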
What was measured:
Assay in all cases: NCI tumour cell line growth inhibition, 48 h
[1] = test system: 786-0 renal
[2] = test system: A498 renal
[3] = test system: A549 NSCLC
[4] = test system: ACHN renal
[5] = test system: BT-549 breast
[6] = test system: CAKI-1 renal
[7] = test system: CCRF-CEM leukemia
[8] = test system: COLO 205 colon
[9] = test system: DLD-1 colon
[10] = test system: DMS 114 small cell lung
[11] = test system: DMS 273 small cell lung
[12] = test system: DU-145 prostate
[13] = test system: EKVX NSCLC
[14] = test system: HCC-2998 colon
[15] = test system: HCT-116 colon
[16] = test system: HCT-15 colon
[17] = test system: HL-60(TB) leukemia
[18] = test system: HOP-18 NSCLC
[19] = test system: HOP-62 NSCLC
[20] = test system: HOP-92 NSCLC
[21] = test system: HS 578T breast
[22] = test system: HT29 colon
[23] = test system: IGROV1 ovarian
[24] = test system: K-562 leukemia
[25] = test system: KM12 colon
[26] = test system: KM20L2 colon
[27] = test system: LOX IMVI melanoma
[28] = test system: M14 melanoma
[29] = test system: M19-MEL melanoma
[30] = test system: MALME-3M melanoma
[31] = test system: MCF7 breast
[32] = test system: MDA-MB-231 breast
[33] = test system: MDA-MB-435
[34] = test system: MDA-N
[35] = test system: MOLT-4 leukemia
[36] = test system: NCI-H226 lung
[37] = test system: NCI-H23 lung
[38] = test system: NCI-H460 lung
[39] = test system: NCI-H522 lung
[40] = test system: NCI/ADR-RES ovarian
[41] = test system: OVCAR-3 ovarian
[42] = test system: OVCAR-4 ovarian
[43] = test system: OVCAR-5 ovarian
[44] = test system: OVCAR-8 ovarian
[45] = test system: P388 leukemia
[46] = test system: P388/ADR leukemia
[47] = test system: PC-3 prostate
[48] = test system: RPMI-8226 leukemia
[49] = test system: RXF 393 renal
[50] = test system: SF-268 CNS
[51] = test system: SF-295 CNS
[52] = test system: SF-539 CNS
[53] = test system: SK-MEL-2 melanoma
[54] = test system: SK-MEL-28 melanoma
[55] = test system: SK-MEL-5 melanoma
[56] = test system: SK-OV-3 ovarian
[57] = test system: SN12C renal
[58] = test system: SN12K1 renal
[59] = test system: SNB-19 CNS
[60] = test system: SNB-75 CNS
[61] = test system: SNB-78 CNS
[62] = test system: SR leukemia
[63] = test system: SW-620 colon
[64] = test system: T-47D breast
[65] = test system: TK-10 renal
[66] = test system: U251 CNS
[67] = test system: UACC-257 melanoma
[68] = test system: UACC-62 melanoma
[69] = test system: UO-31 renal
[70] = test system: XF 498 CNS

Q: Which results are given for `NC(=O)c1[nH]nc(C2OC(CO)C(O)C2O)c1O` (centres undefined)?
A: TGI [1]: > 2870 µM; TGI [2]: 444 µM; TGI [3]: 289 µM; TGI [4]: 1730 µM; TGI [5]: 1160 µM; TGI [6]: 158 µM; TGI [7]: 2360 µM; TGI [8]: 1660 µM; TGI [9]: 447 µM; TGI [10]: 858 µM; TGI [11]: 210 µM; TGI [12]: > 5000 µM; TGI [13]: 1960 µM; TGI [14]: 378 µM; TGI [15]: 3770 µM; TGI [16]: 838 µM; TGI [17]: 63.7 µM; TGI [18]: 812 µM; TGI [19]: 478 µM; TGI [20]: 279 µM; TGI [21]: 1620 µM; TGI [22]: 3420 µM; TGI [23]: 1280 µM; TGI [24]: 2290 µM; TGI [25]: 2980 µM; TGI [26]: > 5000 µM; TGI [27]: 309 µM; TGI [28]: 882 µM; TGI [29]: > 3890 µM; TGI [30]: 2660 µM; TGI [31]: 1060 µM; TGI [32]: 670 µM; TGI [33]: 469 µM; TGI [34]: 923 µM; TGI [35]: 386 µM; TGI [36]: 2220 µM; TGI [37]: 386 µM; TGI [38]: 415 µM; TGI [39]: 1050 µM; TGI [40]: 105 µM; TGI [41]: 424 µM; TGI [42]: 520 µM; TGI [43]: 2830 µM; TGI [44]: 212 µM; TGI [45]: 802 µM; TGI [46]: 241 µM; TGI [47]: 794 µM; TGI [48]: 1830 µM; TGI [49]: 551 µM; TGI [50]: 3560 µM; TGI [51]: 848 µM; TGI [52]: 505 µM; TGI [53]: 843 µM; TGI [54]: > 5000 µM; TGI [55]: 4090 µM; TGI [56]: 460 µM; TGI [57]: 819 µM; TGI [58]: 663 µM; TGI [59]: > 4620 µM; TGI [60]: 840 µM; TGI [61]: 2820 µM; TGI [62]: > 232 µM; TGI [63]: 2050 µM; TGI [64]: > 2990 µM; TGI [65]: 2320 µM; TGI [66]: 4010 µM; TGI [67]: > 5000 µM; TGI [68]: 579 µM; TGI [69]: 1020 µM; TGI [70]: 247 µM

Q: How did the TGI [2] turn out when `C[C@@]12CC[C@H]3[C@@H]4CCC(=O)N[C@@]4(C)CC[C@@H]3[C@@]1(C)CC[C@H](OC(=O)Cc1ccc(N(CCCl)CCCl)cc1)C2` was run?
A: Its TGI is 32.8 µM.

Q: What about the TGI [3] of the same molecule?
A: Its TGI is 30.4 µM.

Q: And the TGI [6]?
A: Its TGI is 30.5 µM.

Q: And the TGI [7]?
A: Its TGI is 35.1 µM.

Q: What about the TGI [8] of the same molecule?
A: The TGI was 38.3 µM.

Q: And the TGI [9]?
A: The TGI was 47.1 µM.

Q: And the TGI [10]?
A: The TGI was 28.8 µM.

Q: What about the TGI [11] of the same molecule?
A: The TGI was 30.3 µM.

Q: And the TGI [13]?
A: Its TGI is 31.3 µM.

Q: What about the TGI [14] of the same molecule?
A: The TGI was 31.2 µM.

Q: And the TGI [15]?
A: Its TGI is 29.9 µM.

Q: What about the TGI [16] of the same molecule?
A: The TGI was 36.1 µM.

Q: And the TGI [18]?
A: Its TGI is 34 µM.

Q: What about the TGI [19] of the same molecule?
A: Its TGI is 31.1 µM.

Q: And the TGI [20]?
A: Its TGI is 35.3 µM.

Q: What about the TGI [22] of the same molecule?
A: Its TGI is 27.8 µM.

Q: What about the TGI [23] of the same molecule?
A: Its TGI is 31.3 µM.

Q: What about the TGI [24] of the same molecule?
A: Its TGI is 48.7 µM.

Q: What about the TGI [25] of the same molecule?
A: Its TGI is 44.5 µM.

Q: And the TGI [26]?
A: Its TGI is 32.7 µM.

Q: And the TGI [27]?
A: Its TGI is 27.8 µM.

Q: What about the TGI [29] of the same molecule?
A: The TGI was 32.8 µM.

Q: And the TGI [30]?
A: The TGI was 36.1 µM.

Q: And the TGI [31]?
A: Its TGI is 24.7 µM.

Q: And the TGI [35]?
A: Its TGI is 38.8 µM.

Q: And the TGI [36]?
A: Its TGI is 33.2 µM.

Q: What about the TGI [37] of the same molecule?
A: The TGI was 30.3 µM.

Q: What about the TGI [38] of the same molecule?
A: The TGI was 28.2 µM.

Q: And the TGI [39]?
A: Its TGI is 34.4 µM.

Q: What about the TGI [40] of the same molecule?
A: Its TGI is 37 µM.

Q: What about the TGI [41] of the same molecule?
A: Its TGI is 34.6 µM.

Q: What about the TGI [42] of the same molecule?
A: Its TGI is 32.2 µM.

Q: And the TGI [43]?
A: The TGI was 31.5 µM.

Q: What about the TGI [44] of the same molecule?
A: Its TGI is 33.1 µM.

Q: And the TGI [45]?
A: Its TGI is 32 µM.

Q: What about the TGI [46] of the same molecule?
A: Its TGI is 58.8 µM.

Q: And the TGI [48]?
A: Its TGI is 56 µM.

Q: What about the TGI [49] of the same molecule?
A: The TGI was 32 µM.

Q: And the TGI [50]?
A: The TGI was 31.9 µM.

Q: And the TGI [51]?
A: Its TGI is 31.5 µM.

Q: What about the TGI [52] of the same molecule?
A: Its TGI is 33.4 µM.

Q: What about the TGI [53] of the same molecule?
A: The TGI was greater than 100 µM.

Q: And the TGI [54]?
A: Its TGI is 33 µM.

Q: And the TGI [55]?
A: Its TGI is 27.1 µM.

Q: What about the TGI [56] of the same molecule?
A: The TGI was 28.5 µM.

Q: What about the TGI [57] of the same molecule?
A: Its TGI is 29.1 µM.

Q: And the TGI [58]?
A: The TGI was 32.5 µM.

Q: What about the TGI [60] of the same molecule?
A: The TGI was 33.5 µM.

Q: What about the TGI [61] of the same molecule?
A: The TGI was 39.2 µM.

Q: And the TGI [63]?
A: The TGI was 34.1 µM.

Q: What about the TGI [66] of the same molecule?
A: The TGI was 28.8 µM.

Q: What about the TGI [67] of the same molecule?
A: The TGI was 55.8 µM.

Q: What about the TGI [68] of the same molecule?
A: Its TGI is 30.5 µM.

Q: What about the TGI [69] of the same molecule?
A: Its TGI is 33.3 µM.

Source: PubChem BioAssay (NCI)
